Results published in US20240108687A1, “COMPOSITIONS AND METHODS FOR USING COMBINATIONS OF ACTIN-BASED PEPTIDES TO MODULATE CELLULAR BIOACTIVITY” (Virongy L.L.C., priority 2021, published 2024).

Assays:
[1] = system: HIV-1; settings: cited from earlier work
[2] = system: Influenza A virus (IAV); settings: MDCK cells; cited from earlier work
[3] = system: Influenza A virus (IAV); settings: IAV-infected mice vs solvent-treated control; cited from earlier work
[4] = system: Influenza A virus (IAV); settings: cited from earlier work
[5] = system: Murine leukemia virus (MLV), Avian leukosis virus (ALV), and Human immunodeficiency virus (HIV); settings: HEK293T cells transfected with viral receptors; cited from earlier work
[6] = system: Lenti-GFP virion particles; assay: Lentiviral virion infectivity after virion incorporation of actin-based peptide; settings: virions first incubated with peptide to allow virion incorporation; equal amount of virions
Method: (A) Uninfected cells control. (B) Lenti-GFP virion particles were used to directly infect target cells. […] An equal amount of virion particles in (B) and (C) were used for infection. Virion infectivity was measured by the percentage of GFP+ cells.

[7] = system: lenti-GFP vector viral particles; assay: Lentiviral vector (lenti-GFP) transduction of cells, flow cytometry; settings: B11-20AA plus polybrene, 3 days post infection, viable cells (low PI)
Method: Viral transduction of cells was measured at 3 days post infection by flow cytometry. (A) uninfected cells control. (B) Cells were infected with a lenti-GFP vector viral particles. […] Transduction efficiency was measured by the percentage of GFP+ cells. PI,_propidium iodide, was added before flow cytometry for cytotoxicity control (FL3). GFP+ cells were counted only when the cells are viable (low PI staining).

[8] = system: Measles virus (MeV); settings: cited from earlier work
[9] = system: CD144 (VE-cadherin); assay: Surface expression of CD144 on H9 lymphocytes, flow cytometry; format: cell-based, Human; settings: H9 lymphocytes treated 40 minutes
Method: (§1) FIG. 7: Example of actin-based peptide to enhance surface expression of multiple cellular receptors including CD325 (N-cadherin), CD144 (VE-cadherin), and CD324 (E-cadherin), which are surface molecule for cell-cell and cell-extracellular matrix binding and adhesion. (A) Human H9 lymphocyte (derivative of HutT 78 cell, from ATCC) were not treated or treated with an actin-based peptide (N7-20AA) for 40 minutes. Cells were stained on ice with PerCy-Cy5.5-labeled mouse anti-human CD325 antibody. Surface expression of CD325 before and after N7-20AA was quantified by flow cytometer. […] (B) Human H9 lymphocyte were not treated or treated with an actin-based peptide (N7-20AA) for 40 minutes. Cells were stained on ice with FITC-labeled mouse anti-human CD144 antibody. Surface expression of CD144 before and after N7-20AA was quantified by flow cytometer. […] (C) Human H9 lymphocyte were not treated or treated with an actin-based peptide (N7-20AA) for 40 minutes. Cells were stained on ice with PE-labeled mouse anti-human CD324 antibody. Surface expression of CD324 before and after N7-20A was quantified by flow cytometer.

[10] = system: CD324 (E-cadherin); assay: Surface expression of CD324 on H9 lymphocytes, flow cytometry; format: cell-based, Human; settings: H9 lymphocytes treated 40 minutes
Method: as §1

[11] = system: CD325 (N-cadherin); assay: Surface expression of CD325 on H9 lymphocytes, flow cytometry; format: cell-based, Human; settings: H9 lymphocytes treated 40 minutes
Method: as §1

[12] = system: HIV-1; settings: CD4 T lymphocytes; cited from earlier work
[13] = system: HIV-1; settings: cited from earlier work; remark: listed apart in the source
[14] = system: Influenza A virus (IAV); settings: cited from earlier work; remark: listed apart in the source
[15] = system: HEK293T cells; assay: Liposome transfection of GFP-expression vector DNA with actin-based peptide; format: cell-based; settings: Lenti-GFP DNA + liposome + peptide, 48 hours post transfection
Method: FIG. 6: Example of combination of actin-based peptide with liposome to deliver nucleic acids into cells. HEK293T cells were transfected with a GFP-expression vector DNA (Lenti-GFP) in complex with liposome (DNA+Lipo) or with liposome and an actin-based peptide (N9-A20) (DNA+Lipo+N9). Following transfection, cells were quantified for GFP expression at 48 hours post transfection by flow cytometry.

C/C1=C/C(=O)O[C@@H]2C[C@@H](CC[C@H](C)/C=C\C=C\CC1)O[C@@](O)([C@@H]1CSC(=O)N1)C2 [latrunculin A]
gag mRNA localisation [1]: caused retention of gag mRNA in the nucleus
Distribution of plasma membrane HA, lipid rafts and actin [2]: dramatically redistributed

CCN(CC)CCCC(C)Nc1nc(C)cc(Nc2ccc3nc(C)cc(N)c3c2)n1 (stereo not drawn) [NSC23766]
Body weights [3]: increased body weights
Survivability [3]: higher survivability
Titer of IAV in lung tissue [3]: reduce titer of IAV in lung tissue
IC50 ([4]; A549 cells, read-out: IC50, reduction of viral replication): 22 µM
Viral protein expression [4]: reduced viral protein expression

Cc1ccc2c(c1)C(=O)C1(O)CCN(c3ccccc3)C1=N2 (stereo not drawn) [blebbistatin]
Virus surfing [5]: eliminated virus surfing

RRRRRRRR(G/A)0-20DIKEKLCYVALDFEQEMATA [B11-20AA]
Virion infectivity (percentage of GFP+ cells) [6]: Enhancement of lentiviral virion infectivity
Transduction efficiency (percentage of GFP+ cells) [7]: Enhancement of lentiviral vector transduction

C/C1=C\[C@H](C)C[C@H](C)OC(=O)C[C@H](c2ccc(O)cc2)NC(=O)[C@@H](Cc2c(Br)[nH]c3ccccc23)N(C)C(=O)[C@H](C)NC(=O)[C@@H](C)C1 [jasplakinolide]
Distribution of plasma membrane HA, lipid rafts and actin [2]: dramatically redistributed
Co-transport of M-RNP to the cell surface [8]: not affecting M-RNP co-transport
Free-virus production [8]: blocked free-virus production

RRRRRRRR(G/A)0-20QIMFETFNTPAMYVAIQAVL [N7-20AA]
Surface expression of CD144 [9]: up-regulation of surface expression of CD144
Surface expression of CD324 [10]: up-regulation of surface expression of CD324
Surface expression of CD325 [11]: up-regulation of surface expression of CD325

O=C1CSC(c2cccc(Br)c2)N1c1cc(Cl)ccc1O (stereo not drawn) [CK-548]
CD4 T cell activation and cytotoxicity at effective dosages [12]: did not affect CD4 T cell activation or induce cytotoxicity
HIV-1 replication [12]: dramatically reduced HIV-1 replication

C=C1[C@@H](C)[C@H]2[C@H](Cc3ccccc3)NC(=O)[C@]23[C@H](OC(C)=O)/C=C/[C@@](C)(O)C(=O)[C@@H](C)C/C=C/[C@H]3[C@@H]1O [cytochalasin D]
Virus surfing [5]: eliminated virus surfing
Accumulation of early and late reverse transcription products ([13]; pretreating cells, not 2 hours post-infection): reduced the accumulation of early and late reverse transcription products
Reduction of nuclear accumulation of late RT products ([13]; pretreatment): 25 fold
Titers of filamentous and spherical virions [14]: dramatically abrogated the titers of the filamentous, but not spherical, virions
Distribution of plasma membrane HA, lipid rafts and actin [2]: dramatically redistributed
Actin and H co-immunoprecipitation with M protein [8]: dramatically reduced actin co-immunoprecipitating with M, while enhancing H co-immunoprecipitation
Co-transport of M-RNP to the cell surface [8]: reduces co-transport of M-RNP to the cell surface
Rate of cell-cell fusion [8]: enhanced the rate of cell-cell fusion

RRRRRRRR(G/A)0-20HTVPIYEGYALPHAILRLDL [N9-A20]
Delivery of nucleic acids into cells (GFP expression) [15]: enhances delivery of nucleic acids into cells
